Laboratory results taken from US20260077065A1, “Compositions and Methods for Assessing Kinase Activity” (The Board of Trustees of the Leland Stanford Junior …, priority 2022, published 2026).

Assays:
ERK [1] = assay: U87-EGFRvIII stable tKiMBI/tKiMBImut reporter cell lines, bioluminescence; type: cell-based, human; details: for induction of bioluminescence: tKiMBI-expressing cells; for effect on bioluminescence of control cell lines: tKiMBImut-expressing cells
Procedure: Next, the ability of KiMBIs to report ERK kinase inhibition in human tumor xenografts in mice was tested. U87-EGFRvIII cells were transduced with lentiviruses expressing tKiMBI-T2A-AkaLuc, where AkaLuc allows kinase-independent tracking of tumor location and size (FIG. 6a). Transduced cells were sorted by fluorescence-activated cell sorting (FACS) and selected by antibiotics to generate polyclonal stable cell lines.
Generation of KiMBI-expressing stable tumor cell lines. U87-EGFRvIII and LN229 cells were lentiviral transduced with pLL3.7m-CMV-KiMBI-T2A-AkaLuc-P2A-Blasticidin. Then, 72 h after transfection, cells were dissociated with trypsin and resuspended in DMEM and then changed to PBS. Suspended cells were sorted for the population with medium fluorescence level (20-40%) on a fluorescence-activated cell sorter (FACS), the FACSJazz (BD Biosciences) at Stanford Shared FACS Facility. After cell sorting, the KiMBI-expressing cells were maintained and passaged in corresponding culture medium supplemented with blasticidin (6 μg/mL for both cell lines) to select for stable polyclonal cell lines. Flow cytometry data were analyzed on FlowJo software. The stable KiMBI expression was validated by examination of tdTomato fluorescence in tKiMBI (and its variants) using an EVOS FL Autoimaging system (Thermo Scientific).
(§1) In vitro cell-based bioluminescent assay. Cells were seeded into 96-well Lumitrac plate (Greiner Bio-One) at a density of 1.5-2×10^4 cells per well. After 24 h, cells were transiently transfected with KiMBI-expressing plasmids (5-10 ng per well) with or without caMEK-expressing plasmids (50 ng per well, empty pcDNA3.1 as negative control to keep total transfected DNA amount consistent) using lipofectamine 3000 (Invitrogen) following manufacturer's instructions. For the stable polyclonal KiMBI-expressing cell liens, this lipofection step was skipped. At 24 h after transfection, the cells were treated with drugs at desired concentration in opti-MEM reduced-serum medium (Thermo Fisher) for 1-1.5 hours. Then, for assaying luminescence, Nano-Glo live cell assay system (Promega) was used following manufacturer's instructions. Time-lapse live luminescence was recorded on Safire-2 microplate reader (Tecan) with 100 ms integration and one read per min for 20 min. Luminescence spectrum was measured on a Varioskan LUX multimode microplate reader (Thermo Scientific) using the spectral scanning protocol with 1 s integration for each wavelength at 400-680 nm (1 nm per data point).

ERK [2] = assay: ERK KiMBI cell-based bioluminescent assay, HEK293A cells co-transfected with caMEK
Text: To develop a luciferase reporter protein whose activity can be activated by ERK inhibition, it was hypothesized that NanoLuc luciferase catalytic activity could be modulated through large ERK-induced conformational changes. Created and tested were fusion proteins of various topologies (FIG. 2a) comprising the NanoLuc NanoBiT fragments, an ERK substrate peptide from Cdc25C^7, and a proline-directed WW phospho-binding domain (WW)^8 from Pin1. In particular, an arrangement was postulated in which binding of phosphorylated substrate (pSub) to WW would force the SmBiT fragment to adopt an unfavorable conformation for LgBiT complementation, would show low luminescence with active ERK and high luminescence with inhibited ERK (FIG. 2b). The KiMBI candidates were screened by co-transfection into HEK293A cells with a constitutively active MEK (caMEK) followed by application of the ERK inhibitor Vx-Ile.
as §1

ERK [3] = assay: Molecular imaging of ERK inhibition in subcutaneous U87-EGFRvIII tumor model; type: in vivo, mice; details: 2 h after injection, FFz imaging
Procedure: The ability of tKiMBI to report ERK pathway inhibition in tumors in vivo was assessed. Mice were injected subcutaneously with 10^6 tKiMBI-expressing cells on one side and, to control for differences in substrate delivery between injections, tKiMBImut-expressing reporter cells on the other side (FIG. 7a).
Molecular imaging of ERK inhibition in subcutaneously implanted cells. […]

ERK [4] = assay: Molecular imaging of ERK inhibition in KiMBI-encoded AAV infected mouse brain; type: in vivo
Procedure: Using CFz, tested was whether tKiMBI could report the BBB-permeance of ERK pathway inhibitors in living mice. tKiMBI-T2A-caMEK or the negative control tKiMBImut-T2A-caMEK were expressed in mouse striatum by AAV transduction (FIG. 9a).
(§2) General procedures of kinase inhibitor injection and in vivo bioluminescence imaging. […] For KiMBI (NanoLuc-based bioluminescent reporter) imaging, mice were i.p. injected with either 1.3 μmol (0.56 mg) of fluorofurimazine (FFz) or cephalofurimazine (CFz) in 150 μl of injectable formulation containing 6 mg poloxamer-407 (P-407) in Dulbecco Phosphate Buffered Saline (DPBS, without Ca^2+ or Mg^2+, no. 21-031-CV, Corning) for imaging. Immediately after luciferin administration, mice were anesthetized using isoflurane, and images were acquired in the Ami HT optical imaging system every 1 min for 10 min, with an air flow containing 1-2% isoflurane for stable anesthesia. Imager settings were: emission filter, open; field of view, 25 cm; f-stop 1.2; binning, 2×2 and exposure time, 30 s. Images were analyzed in Aura 4.0 in vivo imaging software. The above-mentioned conditions and settings were for most in vivo studies unless otherwise stated in the specific procedures.
Molecular imaging of ERK inhibition in KIMBI-encoded AAV infected mouse brain. […]

ERK [5] = assay: Imaging of ERK inhibition in intracranially implanted U87-EGFRvIII cells; type: in vivo, mice
Procedure: Tested next was whether KiMBI can report ERK inhibition in the brain tumor xenograft model.
U87-EGFRvIII xenografts are known to disrupt the BBB^16. When the BBB-impermeant GSK1120212 (1 mg/kg i.p.) was administered to the same group of mice, a positive response was also observed, with ˜150% higher tKiMBI signal.
as §2
Molecular imaging of ERK inhibition in intracranially implanted cells. The stereotaxic injection on the 7- to 9-week-old male J:NU mice were similar to the afore-mentioned AAV infection surgery. A Hamilton syringe with a 26-gauge needle was inserted 0.62 mm […] and 1.75 mm lateral to the bregma to a depth of 3.5 mm, and after a 2 min wait the needle was pulled back 0.5 mm to allow space for the cell suspension. Following this, 3×10^4 KiMBI-expressing U87-EGFRvIII or LN-229 stable cells in 1.5 μl of PBS were injected at an injection speed of 0.3 μL/min using the syringe pump. To visualize ERK inhibition in U87-EGFRvIII cell implants, 5 days after cell implantation, tumor-bearing mice were i.p. injected with CFz (0.4 μmol, with 1.8 mg P-407) for imaging. […]

ERK [6] = assay: Imaging of ERK inhibition in intracranially implanted LN-229 cells; type: in vivo, mice; details: one week after implantation
Procedure: 3×10^4 LN-229 cells expressing tKiMBI or tKiMBImut were implanted into the striatum, and KiMBI assays were performed one week later.
Molecular imaging of ERK inhibition in intracranially implanted cells. The stereotaxic injection on the 7- to 9-week-old male J:NU mice were similar to the afore-mentioned AAV infection surgery. A Hamilton syringe with a 26-gauge needle was inserted 0.62 mm dorsal and 1.75 mm lateral to the bregma to a depth of 3.5 mm, and after a 2 min wait the needle was pulled back 0.5 mm to allow space for the cell suspension. […]

ERK [7] = assay: Time-lapse imaging of ERK inhibition in intracranially implanted U87-EGFRvIII cells; type: in vivo, mice
Procedure: A non-invasive method with the potential for longitudinal studying of drug pharmacokinetics and pharmacodynamics should allow rapid dose and schedule optimization for drug development.
as §2
Time-lapse imaging of ERK inhibition in intracranially implanted cells. One week after implantation of 10^5 KiMBI-expressing U87-EGFRvIII stable cells, the tumor-bearing mice were i.p. injected with CFz (0.2 μmol, with 0.8 mg P-407) for the initial imaging to establish the signal baseline before drug administration.

[8] = previously characterized; cited from earlier work
ERK [9] = details: mouse, in vivo; cited from earlier work
Akt [10] = assay: Akt oKiMBI luminescence in HEK293A (caAkt), U87-EGFRvIII and LNCaP cells; type: cell-based, human; details: all cell lines: HEK293A (caAkt), U87-EGFRvIII, LNCaP
Akt [11] = assay: U87-EGFRvIII cells stably expressing Akt oKiMBI or oKiMBImut, luminescence; type: cell-based, human
Text: To assess Akt inhibition in human tumor xenografts in mice, either Akt oKiMBI- or oKiMBImut-expressing U87-EGFRvIII stable cell lines were first engineered through lentiviral transduction (FIG. 17a). Fluorescence-activated cell sorting (FACS) was subsequently employed to sort the transduced cells, followed by antibiotics selection to establish polyclonal stable cell lines.

Akt [12] = assay: Molecular imaging of Akt inhibition in subcutaneous U87-EGFRvIII tumor model; type: in vivo; details: same mice after 2-day interval
Text: Evaluated next was the capacity of Akt oKiMBI to report Akt inhibition in a subcutaneous tumor model. Engineered U87-EGFRvIII cells that stably express oKiMBI or oKiMBImut were subcutaneously injected at different sites in J:NU mice.

Akt [13] = assay: BAR (bioluminescent Akt reporter, FLuc) luminescence in HEK293A (caAkt), U87-EGFRvIII and LNCaP cells; type: cell-based, human; details: all tested cell lines

O=C(Nc1ccc2[nH]nc(-c3ccncc3)c2c1)[C@@H]1CCN(CC(=O)N2CCN(c3ccc(-c4ncccn4)cc3)CC2)C1 [SCH772984]
induction of bioluminescence (ERK [1]): ~4 fold | effect on bioluminescence of control cell lines (ERK [1]): slightly reduced bioluminescence

Cc1cnc(Nc2ccc(F)cc2Cl)nc1-c1c[nH]c(C(=O)N[C@H](CO)c2cccc(Cl)c2)c1 [Vx-11e]
increase in luminescence (ERK [2]; 03 topology KiMBI candidate, 1 μM Vx-11e): ~65% | induction of bKiMBI luminescence by inhibitor (ERK [2]; ERK blue KiMBI (WW F25A)): > 10 fold

O=C(NOC[C@H](O)CO)c1ccc(F)c(F)c1Nc1ccc(I)cc1F [PD0325901, mirdametinib]
induction of tKiMBI signal (ERK [2]; AAV plasmids caMEK-T2A-tKiMBI (A1) and tKiMBI-T2A-caMEK (A2), both): approximately 4 fold | induction of bioluminescence (ERK [1]): ~4 fold | effect on bioluminescence of control cell lines (ERK [1]): slightly reduced bioluminescence | increase in brightness of tKiMBI tumor (ERK [3]; tKiMBI): 100% | increase in brightness of tKiMBImut tumor (ERK [3]; tKiMBImut control): ~10% | bioluminescence of tKiMBI in brain (ERK [4]; 25 mg/kg, CFz imaging, tKiMBI-T2A-caMEK): robustly induced bioluminescence | able to induce a signal increase in KiMBI (ERK [4]; AAV-infected mice brain (discussion)): able to induce a signal increase | increase in tKiMBI signal (ERK [5]; after PD0325901 administration, CFz): ~200% | decrease in tKiMBImut signal (ERK [5]; after PD0325901 administration, control reporter): ~10% | increase in signal from tKiMBI (ERK [6]): > 3 fold | return of signal to baseline (ERK [7]; 25 mg/kg i.p., tKiMBI): backed to baseline on the second day | time for bioluminescence signal to rise to plateau (ERK [7]; 25 mg/kg i.p., tKiMBI): ≤ 1 h | time post-treatment at which signal declined to about half (ERK [7]; 25 mg/kg i.p., tKiMBI): around 8 hrs | time until which signal remained high (ERK [7]; 25 mg/kg i.p., tKiMBI): about 4 h | signal increase in control cells (ERK [7]; after 24 h, tKiMBImut control cells): ~1.4 fold | BBB permeation [8]: BBB-permeant

CC(=O)Nc1cccc(-n2c(=O)n(C3CC3)c(=O)c3c(Nc4ccc(I)cc4F)n(C)c(=O)c(C)c32)c1 [GSK1120212, trametinib]
induction of bioluminescence (ERK [1]): ~4 fold | higher tKiMBI signal (ERK [5]; 1 mg/kg i.p., same group of mice): ~150% | BBB permeation [8]: poor BBB permeation | drug level and ERK inhibition in brains of drug-injected mice (ERK [9]): no detectable GSK1120212 or ERK inhibition

NC(=O)c1cccc2c(N[C@H](CN3CCC3)c3ccc(Cl)c(C(F)(F)F)c3)ncnc12 [M2698]
oKiMBI luminescence response to Akt inhibitor (Akt [10]): significant increase in luminescence | signal response of oKiMBImut cells to drug treatment (Akt [11]; cells expressing oKiMBImut): did not exhibit any signal increase | increase in luminescent signals (Akt [11]; cells stably expressing Akt oKiMBI): ~2.5 fold | inhibition of the Akt pathway reported by Akt oKiMBI (Akt [12]): effective inhibition of the Akt pathway | BAR and BARmut response to Akt inhibitor (Akt [13]): miniscule positive responses
